The values that follow are results of earlier work, collected in patent US7022724B2, “Cognition enhancing derivatives of isoxazole triazoloindane GABA-A α5 receptor subunit ligands” (Merck Sharp & Dohme Ltd., priority 2001, dated 2006).

Molecules are shown by their SMILES.

For data set [1] the following is noted: reported by McNamara and Skelton, Psychobiology 21:101–108.
For data set [2] the following is noted: background statement.

For `COC(=O)c1cc2c(cn1)[nH]c1ccccc12` [β-CCM], in data set [1], the “spatial learning in the Morris watermaze” value is on record as “enhanced spatial learning”. Further, in data set [2], the proconvulsant effect entry was “proconvulsant”.
